Assay results taken from patent publication US20230085307A1, “PYRIDAZINONE COMPOUND AND HERBICIDE” (NISSAN CHEMICAL CORPORATION, priority 2019, published 2023).

Legend:
southern crabgrass = test: Test Example 5: herbicidal effect by foliage application, plastic box (Table 20, symbol F); assay type: in vivo, southern crabgrass (Digitaria ciliaris)
Procedure, shortened: (§1)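 Foliar spray test: emulsion formulation diluted in water to a set application rate, sprayed onto 14-day-old plants raised in diluvial soil at 25° C to 30° C under glass. Both herbicidal effect and crop effect rated visually three weeks later.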

redroot pigweed = test: Test Example 5: herbicidal effect by foliage application, plastic box (Table 20, symbol N); assay type: in vivo, redroot pigweed (Amaranthus retroflexus)
Procedure, shortened: as §1

Japanese bulrush [1] = test: Test Example 2: herbicidal activity, application during weed generation under submerged conditions (Table 17, symbol B); assay type: in vivo, Japanese bulrush (Schoenoplectus juncoides); conditions: AAH 320 g/ha; application during weed generation, submerged conditions
Procedure, shortened: (§2)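 Wagner pot, alluvial soil, 4 cm flood; mixed sowing of all species; greenhouse 25° C.–30° C. Emulsifiable formulation, water-diluted to predetermined dose, applied to paddy water at 1–2 leaf stage. Effect rated at 3 wk using the earlier test's scoring criteria.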

rice flat sedge = test: Test Example 3: herbicidal effect by foliage application, Wagner pot (Table 18, symbol E); assay type: in vivo, rice flat sedge (Cyperus iria); conditions: for herbicidal effect on rice flat sedge (E): 320 g/ha
Procedure, shortened: (§3)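 Plants were sown in alluvial soil held under 0.1–0.5 cm standing water and grown 14 days in a greenhouse at 25–30 °C. An emulsifiable formulation, water-diluted to the set dose, was then sprayed onto the foliage, and effects were scored three weeks later using previously defined criteria.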

velvetleaf = test: Test Example 5: herbicidal effect by foliage application, plastic box (Table 20, symbol M); assay type: in vivo, velvetleaf (Abutilon theophrasti)
Procedure, shortened: as §1

windgrass = test: Test Example 5: herbicidal effect by foliage application, plastic box (Table 20, symbol L); assay type: in vivo, windgrass (Apera spica-venti)
Procedure, shortened: as §1

green foxtail = test: Test Example 5: herbicidal effect by foliage application, plastic box (Table 20, symbol G); assay type: in vivo, green foxtail (Setaria viridis)
Procedure, shortened: as §1

late watergrass [2] = test: Test Example 1: herbicidal activity, application before weed generation under submerged conditions (Table 16, symbol A); assay type: in vivo, late watergrass (Echinochloa oryzicola); conditions: amount of applied herbicide 320 g/ha
Procedure, shortened: (§4)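 Alluvial soil was flooded to 4 cm depth, weed seeds were sown mixed and 2.5-leaf rice seedlings were transplanted. On sowing day, the compound's emulsion, diluted in water to a set dose, was applied to the water surface. Plants grew at 25–30 °C and were scored 0–5 after three weeks.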

barnyard grass [3] = test: Test Example 5: herbicidal effect by foliage application, plastic box (Table 20, symbol H); assay type: in vivo, barnyard grass (Echinochloa crus-galli)
Procedure, shortened: as §1

Japanese bulrush [4] = test: Test Example 1: herbicidal activity, application before weed generation under submerged conditions (Table 16, symbol B); assay type: in vivo, Japanese bulrush (Schoenoplectus juncoides); conditions: amount of applied herbicide 320 g/ha
Procedure, shortened: as §4

Italian ryegrass = test: Test Example 5: herbicidal effect by foliage application, plastic box (Table 20, symbol K); assay type: in vivo, Italian ryegrass (Lolium multiflorum)
Procedure, shortened: as §1

persian speedwell = test: Test Example 5: herbicidal effect by foliage application, plastic box (Table 20, symbol R); assay type: in vivo, Persian speedwell (Veronica persica)
Procedure, shortened: as §1

chickweed = test: Test Example 5: herbicidal effect by foliage application, plastic box (Table 20, symbol P); assay type: in vivo, common chickweed (Stellaria media)
Procedure, shortened: as §1

barnyard grass [5] = test: Test Example 3: herbicidal effect by foliage application, Wagner pot (Table 18, symbol H); assay type: in vivo, barnyard grass (Echinochloa crus-galli); conditions: for herbicidal effect on barnyard grass (H): 320 g/ha
Procedure, shortened: as §3

Chinese sprangletop = test: Test Example 3: herbicidal effect by foliage application, Wagner pot (Table 18, symbol D); assay type: in vivo, chinese sprangletop (Leptochloa chinensis); conditions: for herbicidal effect on Chinese sprangletop (D): 320 g/ha
Procedure, shortened: as §3

blackgrass = test: Test Example 5: herbicidal effect by foliage application, plastic box (Table 20, symbol J); assay type: in vivo, blackgrass (Alopecurus myosuroides)
Procedure, shortened: as §1

lambsquarters = test: Test Example 5: herbicidal effect by foliage application, plastic box (Table 20, symbol O); assay type: in vivo, lambsquarters (Chenopodium album)
Procedure, shortened: as §1

wild oat = test: Test Example 5: herbicidal effect by foliage application, plastic box (Table 20, symbol I); assay type: in vivo, wild oat (Avena fatua)
Procedure, shortened: as §1

oval-leafed pondweed [6] = test: Test Example 2: herbicidal activity, application during weed generation under submerged conditions (Table 17, symbol C); assay type: in vivo, oval-leafed pondweed (Monochoria vaginalis); conditions: AAH 320 g/ha; application during weed generation, submerged conditions
Procedure, shortened: as §2

late watergrass [7] = test: Test Example 2: herbicidal activity, application during weed generation under submerged conditions (Table 17, symbol A); assay type: in vivo, late watergrass (Echinochloa oryzicola); conditions: AAH 320 g/ha; application during weed generation, submerged conditions
Procedure, shortened: as §2

oval-leafed pondweed [8] = test: Test Example 1: herbicidal activity, application before weed generation under submerged conditions (Table 16, symbol C); assay type: in vivo, oval-leafed pondweed (Monochoria vaginalis); conditions: amount of applied herbicide 320 g/ha
Procedure, shortened: as §4

[9] = foliage application, 320 g/ha, three weeks after application
[10] = amount of applied herbicide 320 g/ha
[11] = 320 g/ha, foliage application after 14-day growth, evaluated three weeks after application
[12] = amount of applied herbicide 320 g/ha, foliage application after 14-day growth, evaluated three weeks after application

CCCOc1ccc(-c2sc3ccc(F)cc3c2-c2c(O)c(CC)nn(C)c2=O)cc1 [2-418]
F: southern crabgrass, herbicidal effect grade (southern crabgrass; [9]): 2 (Herbicidal rate of 20% or more and less than 40%)
N: redroot pigweed, herbicidal effect grade (redroot pigweed; [9]): 5 (Herbicidal rate of 90% or more (almost completely withered))
herbicidal effect rating, B: Japanese bulrush (Japanese bulrush [1]): 3 (Herbicidal rate of 40% or more and less than 70%)
herbicidal effect on E: rice flat sedge (rice flat sedge; [10]): 5 (Herbicidal rate of 90% or more (almost completely withered))
M: velvetleaf, herbicidal effect grade (velvetleaf; [9]): 5 (Herbicidal rate of 90% or more (almost completely withered))
L: windgrass, herbicidal effect grade (windgrass; [9]): 4 (Herbicidal rate of 70% or more and less than 90%)
G: green foxtail, herbicidal effect grade (green foxtail; [9]): 3 (Herbicidal rate of 40% or more and less than 70%)
Herbicidal effect, A: late watergrass (late watergrass [2]): 4 (Herbicidal rate of 70% or more and less than 90%)
H: barnyard grass, herbicidal effect grade (barnyard grass [3]; [9]): 4 (Herbicidal rate of 70% or more and less than 90%)
Herbicidal effect, B: Japanese bulrush (Japanese bulrush [4]): 4 (Herbicidal rate of 70% or more and less than 90%)
K: Italian ryegrass, herbicidal effect grade (Italian ryegrass; [9]): 4 (Herbicidal rate of 70% or more and less than 90%)
R: persian speedwell, herbicidal effect grade (persian speedwell; [9]): 5 (Herbicidal rate of 90% or more (almost completely withered))
P: chickweed, herbicidal effect grade (chickweed; [9]): 5 (Herbicidal rate of 90% or more (almost completely withered))
herbicidal effect on H: barnyard grass (barnyard grass [5]; [10]): 5 (Herbicidal rate of 90% or more (almost completely withered))
herbicidal effect on D: Chinese sprangletop (Chinese sprangletop; [10]): 3 (Herbicidal rate of 40% or more and less than 70%)
J: blackgrass, herbicidal effect grade (blackgrass; [9]): 4 (Herbicidal rate of 70% or more and less than 90%)
O: lambsquarters, herbicidal effect grade (lambsquarters; [9]): 5 (Herbicidal rate of 90% or more (almost completely withered))
I: wild oat, herbicidal effect grade (wild oat; [9]): 0 (Herbicidal rate of 5% or less (almost no effect))
herbicidal effect rating, C: oval-leafed pondweed (oval-leafed pondweed [6]): 0 (Herbicidal rate of 5% or less (almost no effect))
herbicidal effect rating, A: late watergrass (late watergrass [7]): 2 (Herbicidal rate of 20% or more and less than 40%)
Herbicidal effect, C: oval-leafed pondweed (oval-leafed pondweed [8]): 2 (Herbicidal rate of 20% or more and less than 40%)

COc1ccc2c(-c3c(OC(=O)C(C)c4ccccc4)c(C)nn(C)c3=O)c(-c3ccccc3OC)sc2c1 (stereo not drawn) [3-157]
herbicidal effect on F: southern crabgrass (evaluation grade 0-5) (southern crabgrass; [11]): 4 (Herbicidal rate of 70% or more and less than 90%)
herbicidal effect on N: redroot pigweed (evaluation grade 0-5) (redroot pigweed; [11]): 4 (Herbicidal rate of 70% or more and less than 90%)
herbicidal effect rating, B: Japanese bulrush (Japanese bulrush [1]): 3 (Herbicidal rate of 40% or more and less than 70%)
herbicidal effect on rice flat sedge (E) (rice flat sedge): 3 (Herbicidal rate of 40% or more and less than 70%)
herbicidal effect on M: velvetleaf (evaluation grade 0-5) (velvetleaf; [11]): 5 (Herbicidal rate of 90% or more (almost completely withered))
herbicidal effect on L: windgrass (evaluation grade 0-5) (windgrass; [11]): 5 (Herbicidal rate of 90% or more (almost completely withered))
herbicidal effect on G: green foxtail (evaluation grade 0-5) (green foxtail; [11]): 4 (Herbicidal rate of 70% or more and less than 90%)
Herbicidal effect, A: late watergrass (late watergrass [2]): 5 (Herbicidal rate of 90% or more (almost completely withered))
herbicidal effect on H: barnyard grass (evaluation grade 0-5) (barnyard grass [3]; [11]): 5 (Herbicidal rate of 90% or more (almost completely withered))
Herbicidal effect, B: Japanese bulrush (Japanese bulrush [4]): 3 (Herbicidal rate of 40% or more and less than 70%)
herbicidal effect on K: Italian ryegrass (evaluation grade 0-5) (Italian ryegrass; [11]): 3 (Herbicidal rate of 40% or more and less than 70%)
herbicidal effect on R: persian speedwell (evaluation grade 0-5) (persian speedwell; [11]): 4 (Herbicidal rate of 70% or more and less than 90%)
herbicidal effect on P: chickweed (evaluation grade 0-5) (chickweed; [11]): 4 (Herbicidal rate of 70% or more and less than 90%)
herbicidal effect on barnyard grass (H) (barnyard grass [5]): 5 (Herbicidal rate of 90% or more (almost completely withered))
herbicidal effect on Chinese sprangletop (D) (Chinese sprangletop): 3 (Herbicidal rate of 40% or more and less than 70%)
herbicidal effect on J: blackgrass (evaluation grade 0-5) (blackgrass; [11]): 4 (Herbicidal rate of 70% or more and less than 90%)
herbicidal effect on O: lambsquarters (evaluation grade 0-5) (lambsquarters; [11]): 4 (Herbicidal rate of 70% or more and less than 90%)
herbicidal effect on I: wild oat (evaluation grade 0-5) (wild oat; [11]): 3 (Herbicidal rate of 40% or more and less than 70%)
herbicidal effect rating, C: oval-leafed pondweed (oval-leafed pondweed [6]): 4 (Herbicidal rate of 70% or more and less than 90%)
herbicidal effect rating, A: late watergrass (late watergrass [7]): 4 (Herbicidal rate of 70% or more and less than 90%)
Herbicidal effect, C: oval-leafed pondweed (oval-leafed pondweed [8]): 3 (Herbicidal rate of 40% or more and less than 70%)

CCCC(=O)Oc1c(C)nn(C)c(=O)c1-c1c(-c2ccc(C#N)cc2)sc2cc(Cl)c(Cl)cc12 [5-050]
Herbicidal effect by foliage application, F: southern crabgrass (southern crabgrass; [12]): 0 (Herbicidal rate of 5% or less (almost no effect))
Herbicidal effect by foliage application, N: redroot pigweed (redroot pigweed; [12]): 0 (Herbicidal rate of 5% or less (almost no effect))
herbicidal effect rating, B: Japanese bulrush (Japanese bulrush [1]): 2 (Herbicidal rate of 20% or more and less than 40%)
herbicidal effect on rice flat sedge (E) (rice flat sedge): 0 (Herbicidal rate of 5% or less (almost no effect))
Herbicidal effect by foliage application, M: velvetleaf (velvetleaf; [12]): 0 (Herbicidal rate of 5% or less (almost no effect))
Herbicidal effect by foliage application, L: windgrass (windgrass; [12]): 0 (Herbicidal rate of 5% or less (almost no effect))
Herbicidal effect by foliage application, G: green foxtail (green foxtail; [12]): 0 (Herbicidal rate of 5% or less (almost no effect))
Herbicidal effect, A: late watergrass (late watergrass [2]): 3 (Herbicidal rate of 40% or more and less than 70%)
Herbicidal effect by foliage application, H: barnyard grass (barnyard grass [3]; [12]): 0 (Herbicidal rate of 5% or less (almost no effect))
Herbicidal effect, B: Japanese bulrush (Japanese bulrush [4]): 0 (Herbicidal rate of 5% or less (almost no effect))
Herbicidal effect by foliage application, K: Italian ryegrass (Italian ryegrass; [12]): 0 (Herbicidal rate of 5% or less (almost no effect))
Herbicidal effect by foliage application, R: persian speedwell (persian speedwell; [12]): 3 (Herbicidal rate of 40% or more and less than 70%)
Herbicidal effect by foliage application, P: chickweed (chickweed; [12]): 3 (Herbicidal rate of 40% or more and less than 70%)
herbicidal effect on barnyard grass (H) (barnyard grass [5]): 2 (Herbicidal rate of 20% or more and less than 40%)
herbicidal effect on Chinese sprangletop (D) (Chinese sprangletop): 4 (Herbicidal rate of 70% or more and less than 90%)
Herbicidal effect by foliage application, J: blackgrass (blackgrass; [12]): 0 (Herbicidal rate of 5% or less (almost no effect))
Herbicidal effect by foliage application, O: lambsquarters (lambsquarters; [12]): 0 (Herbicidal rate of 5% or less (almost no effect))
Herbicidal effect by foliage application, I: wild oat (wild oat; [12]): 0 (Herbicidal rate of 5% or less (almost no effect))
herbicidal effect rating, C: oval-leafed pondweed (oval-leafed pondweed [6]): 0 (Herbicidal rate of 5% or less (almost no effect))
herbicidal effect rating, A: late watergrass (late watergrass [7]): 0 (Herbicidal rate of 5% or less (almost no effect))
Herbicidal effect, C: oval-leafed pondweed (oval-leafed pondweed [8]): 0 (Herbicidal rate of 5% or less (almost no effect))
